From patent publication US20250129018A1, “PLEUROMUTILIN DERIVATIVES CONTAINING CYCLOALKYL GROUP AND PREPARATION METHODS AND APPLICATIONS THEREOF” (priority 2023, published 2025)
Values after ≈ are worked out from the molar mass of the structure shown. Read-outs that look alike come from different tables or passages of the source.

Assays:
MRSA-337371 [1] = assay: In vivo antimicrobial activity experiment in mice (systemic MRSA infection, survival); settings: for protection rate against systemic MRSA infection in mice: 20 mg/kg; for mortality rate / final survival rate: immunosuppressed mice infected i.p. with MRSA-337371; for final survival rate: end of observation
Experimental: First, an MRSA-337371 cryopreservation solution was taken out from a freezer set at −80° C. and the following steps were performed: • (1) 10 μL of the thawed MRSA-337371 cryopreservation solution was pipetted and added into 6 mL of Tryptic Soy Broth (TSB), and incubated until the bacterial solution had become turbid; • (2) a sterile inoculation loop was dipped into and picked up a small amount of the bacterial solution and was dragged on an MH agar medium for streaking, and then the MH agar medium was inverted and placed in a constant temperature incubator at 37° C. to incubate for 24 hours; • (3) a single colony on the MH agar medium was picked and inoculated in 30 mL of MH liquid medium with an inoculation loop, and placed in a constant temperature shaking incubator at 37° C. for 18 hours for later use. […]
6-week-old, about 20 g-weighted, SPF-grade healthy mice (one half male and the other female) were randomly divided into 5 groups, with 10 mice in each group (one half male and the other female), which were specifically divided into a positive control group (an MRSA infection group), a negative control group (a sterile normal saline control group, which was injected with only 10 mL/kg of drug solvent), drug control groups (a Tiamulin treatment group and a Valnemulin treatment group) and an experimental group (a derivative 2 treatment group). 100 mg/kg of cyclophosphamide was intraperitoneally injected to the mice 4 days before the experiment, and 150 mg/kg of cyclophosphamide injection was injected to the mice 1 day before the experiment to keep the mice in an immunosuppressed state. After fasting for 12 hours, except for the negative control group, the remaining 4 groups were intraperitoneally injected with 0.5 mL of 10^8 CFU/mL bacterial solution, and after 30 min, the drug control groups and the experimental group were intravenously injected with 20 mg/kg of the respective drug. The mice were continued to be reared, and observed to record the deaths daily.
Calculation of survival rate: During the experiment, the morbidity and the mortality in each group of mice was observed and recorded in detail every day, and the survival rate in each group of mice was calculated as:
Survival rate=Number of surviving animals/Number of experimental animals×100%

S. aureus-25 = assay: MIC, clinical strain; format: cell-based, Staphylococcus aureus
Experimental: (§1) The pleuromutilin derivatives 1-4 prepared from Example 9 of the present disclosure were determined for their effect on Methicillin-resistant Staphylococcus aureus, Methicillin-resistant Staphylococcus epidermidis, standard strains of Staphylococcus aureus (S. aureus-29213 and S. aureus-25923), clinical strains 1-48 of S. aureus, Escherichia coli, S. agalactiae and S. dysgalactiae equisimilis (S. dysgalactiae-1, S. dysgalactiae-2, S. dysgalactiae-3) and minimum inhibitory concentration (MIC) using a two-fold serial dilution method, and the results were shown in Table 1, Table 2 and Table 3. The standard strains are commercially available from ATCC, and the clinical strains are preserved by Lanzhou Institute of Husbandry and Pharmaceutical Science of Chinese Academy of Agricultural Sciences (Lanzhou, Gansu, China).

S. aureus-44 = assay: MIC, clinical strain; format: cell-based, Staphylococcus aureus
Experimental: as §1

S. aureus-13 = assay: MIC, clinical strain; format: cell-based, Staphylococcus aureus
Experimental: as §1

S. aureus-18 = assay: MIC, clinical strain; format: cell-based, Staphylococcus aureus
Experimental: as §1

S. aureus-11 = assay: MIC, clinical strain; format: cell-based, Staphylococcus aureus
Experimental: as §1

S. aureus-4 = assay: MIC, clinical strain; format: cell-based, Staphylococcus aureus
Experimental: as §1

S. aureus-48 = assay: MIC, clinical strain; format: cell-based, Staphylococcus aureus
Experimental: as §1

S. agalactiae-1 = assay: MIC, two-fold serial dilution method; format: cell-based; settings: for MIC: Streptococcus agalactiae, read-out: minimum inhibitory concentration
Experimental: as §1

MRSA-337371 [2] = assay: MIC, two-fold serial dilution method; format: cell-based, Methicillin-resistant Staphylococcus aureus; settings: for MIC: Staphylococcus aureus, read-out: minimum inhibitory concentration
Experimental: as §1

S. dysgalactiae-2 = assay: MIC, two-fold serial dilution method; format: cell-based, S. dysgalactiae equisimilis; settings: for MIC: Streptococcus dysgalactiae, read-out: minimum inhibitory concentration
Experimental: as §1

S. dysgalactiae-3 = assay: MIC, two-fold serial dilution method; format: cell-based, S. dysgalactiae equisimilis; settings: for MIC: Streptococcus dysgalactiae, read-out: minimum inhibitory concentration
Experimental: as §1

S. dysgalactiae-1 = assay: MIC, two-fold serial dilution method; format: cell-based, S. dysgalactiae equisimilis; settings: for MIC: Streptococcus dysgalactiae, read-out: minimum inhibitory concentration
Experimental: as §1

S. aureus-25923 = assay: MIC, two-fold serial dilution method; format: cell-based, Staphylococcus aureus; settings: for MIC: Staphylococcus aureus, read-out: minimum inhibitory concentration
Experimental: as §1

S. aureus-29213 = assay: MIC, two-fold serial dilution method; format: cell-based, Staphylococcus aureus; settings: for MIC: Staphylococcus aureus, read-out: minimum inhibitory concentration
Experimental: as §1

E. coli-25922 = assay: MIC, two-fold serial dilution method; format: cell-based, Escherichia coli; settings: for MIC: Escherichia coli, read-out: minimum inhibitory concentration
Experimental: as §1

[3] = day 1, 20 mg/kg intravenously 30 min after infection

SMILES	protection rate against systemic MRSA infection in mice (MRSA-337371 [1])	mortality rate (MRSA-337371 [1]; [3])	mortality rate (MRSA-337371 [1]; day 2, 20 mg/kg intravenously)	final survival rate (MRSA-337371 [1]; 20 mg/kg intravenously)	in vitro minimum inhibitory concentration (S. aureus-25)	in vitro minimum inhibitory concentration (S. aureus-44)	in vitro minimum inhibitory concentration (S. aureus-13; in µg/mL)	in vitro minimum inhibitory concentration (S. aureus-18)	in vitro minimum inhibitory concentration (S. aureus-11)	in vitro minimum inhibitory concentration (S. aureus-4)	in vitro minimum inhibitory concentration (S. aureus-48)	other results
C=CC1(C)CC(OC(=O)CSC(C)(C)CNC(=O)C2CCC2)C2(C)C(C)CCC3(CCC(=O)C32)C(C)C1O (centres unmarked) [derivative 2]	60%	10%	40%	60%	0.063	0.031	0.031	0.031	0.063	0.063	0.063	treatment effect in mice (MRSA-337371 [1]; compared with marketed drugs): superior to the marketed Tiamulin and Valnemulin; minimum inhibitory concentration (S. agalactiae-1; S. agalactiae-1): 0.031 µg/mL (≈ 0.0566 µM); minimum inhibitory concentration (MRSA-337371 [2]; MRSA-337371): 0.031 µg/mL (≈ 0.0566 µM); minimum inhibitory concentration (S. dysgalactiae-2; S. dysgalactiae-2): 0.031 µg/mL (≈ 0.0566 µM); minimum inhibitory concentration (S. dysgalactiae-3; S. dysgalactiae-3): 0.031 µg/mL (≈ 0.0566 µM); minimum inhibitory concentration (S. dysgalactiae-1; S. dysgalactiae-1): 0.031 µg/mL (≈ 0.0566 µM); minimum inhibitory concentration (S. aureus-25923; S. aureus-25923): 0.031 µg/mL (≈ 0.0566 µM); minimum inhibitory concentration (S. aureus-29213; S. aureus-29213): 0.063 µg/mL (≈ 0.115 µM); minimum inhibitory concentration (E. coli-25922; E. coli-25922): >16 µg/mL
C=C[C@]1(C)C[C@@H](OC(=O)CSCCN(CC)CC)[C@]2(C)[C@H](C)CC[C@]3(CCC(=O)[C@H]32)[C@@H](C)[C@@H]1O [Tiamulin]	10%	50%	80%	10%	0.5	0.5		0.125	0.5	0.5	0.5	mortality rate (MRSA-337371 [1]; day 3, 20 mg/kg intravenously): 90%; in vitro minimum inhibitory concentration (S. aureus-13): 0.25 µg/mL; MIC (S. agalactiae-1; S. agalactiae-1): 0.25 µg/mL (≈ 0.506 µM); MIC (MRSA-337371 [2]; MRSA-337371): 0.25 µg/mL (≈ 0.506 µM); MIC (S. dysgalactiae-2; S. dysgalactiae-2): 0.25 µg/mL (≈ 0.506 µM); MIC (S. dysgalactiae-3; S. dysgalactiae-3): 0.25 µg/mL (≈ 0.506 µM); MIC (S. dysgalactiae-1; S. dysgalactiae-1): 0.25 µg/mL (≈ 0.506 µM); MIC (S. aureus-25923; S. aureus-25923): 0.25 µg/mL (≈ 0.506 µM); MIC (S. aureus-29213; S. aureus-29213): 0.5 µg/mL (≈ 1.01 µM); MIC (E. coli-25922; E. coli-25922): > 16 µg/mL
C=C[C@]1(C)C[C@@H](OC(=O)CSC(C)(C)CNC(=O)[C@H](N)C(C)C)[C@]2(C)[C@H](C)CC[C@]3(CCC(=O)[C@H]32)[C@@H](C)[C@@H]1O [Valnemulin]	20%	30%	80%	20%	0.063	0.063	0.063	0.063	0.063	0.125	0.125	MIC (S. agalactiae-1): 0.031 µg/mL (≈ 0.0549 µM); MIC (MRSA-337371 [2]; MRSA): 0.031 µg/mL (≈ 0.0549 µM); MIC (S. dysgalactiae-2): 0.031 µg/mL (≈ 0.0549 µM); MIC (S. dysgalactiae-3): 0.031 µg/mL (≈ 0.0549 µM); MIC (S. dysgalactiae-1): 0.031 µg/mL (≈ 0.0549 µM); MIC (S. aureus-25923): 0.031 µg/mL (≈ 0.0549 µM); MIC (S. aureus-29213): 0.063 µg/mL (≈ 0.112 µM); MIC (E. coli-25922): 16 µg/mL (≈ 28.3 µM)
